Measurements reported in article PMC11790956, “A microscale thermophoresis-based enzymatic RNA methyltransferase assay enables the discovery of DNMT2 inhibitors” (Communications Chemistry, 2025).
“Also recorded” adds a separate entry of the source.

How the values were obtained:
[1] = target: T1, DNMT2-tRNA complex (Homo sapiens, UniProt O14717); test: Electrophoretic mobility shift assay (EMSA) of the DNMT2-tRNA complex; format: binding; settings: 500 µM compound, DNMT2 10 µM, tRNAAsp 5 µM
T1 construct: made in house
T1 sequence (O14717 1-391): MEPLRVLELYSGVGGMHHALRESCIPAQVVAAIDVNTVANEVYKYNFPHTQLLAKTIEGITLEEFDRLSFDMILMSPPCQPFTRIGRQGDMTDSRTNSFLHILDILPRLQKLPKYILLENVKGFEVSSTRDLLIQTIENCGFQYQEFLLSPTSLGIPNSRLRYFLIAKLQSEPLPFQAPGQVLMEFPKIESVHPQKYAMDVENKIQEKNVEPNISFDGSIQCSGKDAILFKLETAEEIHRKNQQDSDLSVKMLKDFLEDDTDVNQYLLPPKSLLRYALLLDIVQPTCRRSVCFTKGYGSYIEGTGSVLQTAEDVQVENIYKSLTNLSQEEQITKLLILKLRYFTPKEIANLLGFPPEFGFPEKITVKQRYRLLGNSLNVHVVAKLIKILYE
Description: We speculated these hits might bind very weakly to the tRNA-DNMT2 interaction site and by this inhibit DNMT2 activity. To test this hypothesis, we performed an electrophoretic mobility shift assay (EMSA) using tRNA^Asp (5 µM) and DNMT2 (10 µM) compared to the tRNA sample in absence of the DNMT2 protein (SI Fig. 4)[33]. […] Subsequently, we treated the DNMT2-tRNA complex with all hit compounds at 500 µM and observed their potential to disrupt the complex.
DNMT2 (10 µM) was mixed with tRNA^Asp (5 µM) and treated with 500 µM of the respective screening hit compound in DNMT2 assay buffer (100 mM Tris-HCl, pH 8, 100 mM NH4OAc, 0.1 mM EDTA, 10 mM MgCl2, 10 mM DTT). Subsequently, reaction samples (each 5 µL) were loaded to a native 10% polyacrylamide gel and separated electrophoretically (1 h, 180 V) in 1x TBE. RNA was stained in situ with 1x GelRed and PAGE analysis was conducted by fluorescence scanning at an excitation wavelength of 532 nm (Amersham Typhoon 9400). Positive control: DNMT2+tRNA (band at high molecular weights); negative control: only tRNA (band at low molecular weights).
SI Figure 4. Electrophore?c mobility shi? assay (EMSA) to inves?gate the inﬂuence of screening hits on the DNMT2-tRNA complex forma?on. D NMT2 (10 µ M ) was mixe d w it h t RNAAsp (5 µM) and treated with 50 0 µM of the respec?ve screening hit compound in DNMT2 assay buﬀer. All reac?on samples (each 5 µL) were loaded to a na?ve 10% polyacr ylamide gel and separated electrophore?cally (1 h, 1 80 V) in 1x TBE. RNA was stained in situ with 1x GelRed and PAGE analysis was conducted by ﬂuorescence scanning at an excita?on wavelength of 532 nm (Amersham Typhoon 9400). Po s i ? ve control: DNMT2+tRNA (band at high molecular weights); nega?ve control: only tRNA (band at low

[2] = test system: aptaSAH1&2 SAH split aptamer; test: Split aptamer (aptaSAH1&2) MST ligand titration; format: binding, D. aromatica
Description: To establish our experimental setup, we mixed both aptamer fragment oligonucleotides at equimolar concentrations (final: 50 nM) and titrated series of SAH resp. SAM dilutions to this prototypical SAH biosensor. […] Furthermore, MST assays require only 10 µL of sample volume per capillary compared to 30 µL per well in a 96-well plate supporting high-throughput applications in material consumption.
To evaluate the effect of inhibitors on DNMT2 activity, we used two known inhibitors, SHO108 and SH112. These SAH derivatives were selected based on their documented efficacy for DNMT2[8],[26].
For MTase assay detection by MST, enzyme reaction mixtures with a total volume of 10 µL per single treatment condition were prepared and incubated for the desired reaction times. Inhibitors were added from corresponding DMSO stocks to a final DMSO concentration of max. 5%. Afterward, reactions were quenched at a given reaction time by the addition of 1 µL sodium dodecyl sulfate (SDS, solution, 3% in water) per 10 µL reaction mixture and mixed well by pipetting. Subsequently, 1 µL of a 10× aptamer-containing detection master mix (200 mM Tris, pH 8.5, 200 mM MgCl2, 3 M NaCl, 10 mM urea, 0.2% Brij, 500 nM aptaSAH1, 500 nM aptaSAH2) was added to the quenched MTase reaction and incubated for 1 h at room temperature. Reaction mixtures were loaded directly to MST capillaries without further purification or sample processing.
MST experiments were carried out in at least technical triplicates using a Monolith NT.115 instrument (NanoTemper Technologies) using Monolith standard capillaries and the blue excitation laser setup. The instrument was calibrated according to the manufacturer’s instructions. General settings were applied for all MST experiments as follows: manual temperature control: 25 °C, fluorescence measurement before MST: 4 s, MST (IR laser) on: 20 s, fluorescence after MST: 2 s, delay: 25 s. The laser power was adjusted to optimize the signal-to-noise ratio and the fluorescence signal. LED and MST power settings were chosen individually for each sample by adjusting the LED power to yield fluorescence signals of at least 300 units (blue laser) or 3000 units (red laser) and the MST power to achieve an appropriate thermophoretic response (standard setting: medium MST power). MST measurements were analyzed using the NT analysis software (version 1.5.41) and exported for statistical analysis and plotting in GraphPad Prism 7.01.

[3] = target: T2, DNMT2 (Homo sapiens, UniProt O14717); test: DNMT2 enzymatic split aptamer MST assay; format: biochemical; settings: for IC50: MST-derived, 250 nM DNMT2, 5 µM tRNA, 0.9 µM SAM
T2 construct: made in house
T2 sequence (O14717 1-391): T1 sequence (O14717 1-391)
Description: The enzyme kinetics were characterized by calculating the Michaelis-Menten constant (KM or kcat) and inhibitory constants (IC50 resp. KI).
The final drug compound concentration was adjusted to 500 µM for the epigenetic drug library (Fig. 5) resp. 100 µM for the covalent compound library (Fig. 6), and the enzymatic reaction was incubated for 30 min at 25 °C. Subsequently, enzymatic reactions were terminated by the addition of 0.3% SDS, and the product SAH was quantified by the split aptamer MST assay (Figs. 5A, B, 6A).

[4] = target: T2, DNMT2; test: DNMT2 radiometric 3H incorporation assay; format: biochemical
Description: (§1) To further validate our findings on DNMT2, we compared the split aptamer inhibition assay results of both inhibitors with those obtained from a previously published orthogonal assay method, the radiometric ^3H incorporation assay[8],[26]. […] Using an additional non-enzymatic MTase assay technique, we also investigated the two DNMT2 inhibitors utilizing an orthogonal MST method based on a fluorescent tracer displacement assay (SI Fig. 1)[27],[28].
Radiometric DNMT2 assays were carried out as described previously. HTRF MTase assays with the commercial AptaFluor SAH assay kit (BellBrook Labs) were performed as described in the manufacturer’s manual in 96-well format.

[5] = target: T2, DNMT2; test: Fluorescent tracer displacement assay (FTAD-MST assay); format: binding
Source text: as §1
Fluorescent tracer displacement MST assays for orthogonal ligand evaluation were conducted as described previously. The samples contained 2 µM DNMT2, 100 nM FTAD probe, and 1.3% DMSO in MST buffer (50 mM HEPES, 150 mM NaCl, 1 mM dithiothreitol (DTT), 0.1% PEG-8000, 0.05% polysorbate-20, pH 7.4) supplemented with variable concentrations of the screening compounds. All samples were measured in triplicates in Monolith standard capillaries at 25 °C. The acquisition mode was set to “Nano-Blue” with an excitation power of 30% and a medium MST power. MST measurements were analyzed using the NT analysis software (version 1.5.41) and exported for statistical analysis and plotting in GraphPad Prism 7.01.

[6] = target: T2, DNMT2; test: DNMT2 fluorescence polarization (FP) FTAD displacement assay; format: binding
Description: Fluorescence polarization assays were conducted with a similar sample composition as described for FTAD-MST assays as described previously. Triplicates (50 µL) were prepared in black 96-well half-area plates (Greiner) and measured using a Spark 10 M plate reader (Tecan) equipped with polarization filters coupled to a monochromator setup (FTAD: λex = 480 nm, λem = 530 nm). Polarization values (in mP) were calculated from polarization-specific parallel and orthogonal fluorescence intensities according to the Tecan in-built calculation routine.
Reversibility of alexidine binding to DNMT2 was evaluated with a modified FP-assay setup. Briefly, reaction mixtures containing alexidine were prepared in black 96-well half-area plates, and after FP measurement, the volume of one well (50 µL) was collected and applied to a Zeba™ Spin Desalting Column (7 K MWCO) while 5 µL of a 10x DNMT2 buffer solution (500 mM HEPES, 1.5 M NaCl, 10 mM dithiothreitol (DTT), 1% PEG-8000, 0.5% polysorbate-20, pH 7.4) was placed in the collection tube attached to the SEC column. This procedure separated alexidine and restored the initial composition of the DNMT2 assay solution.
Kinetic FP assays were performed to assess the time-dependent inactivation of DNMT2 treated with covalent inhibitors. Briefly, samples contained 2 µM DNMT2, 100 nM FTAD probe, and 1.3% DMSO in DNMT2 MST buffer. Inhibitors were added from DMSO stocks. Negative inhibition control was performed by mock treatment with DMSO. Reactions were initiated by the addition of the Cpd 11 (adamantanyl-acryloylurea) and monitored for 120 min at 25 °C in a Tecan Spark 10 M plate reader (FTAD: λex = 480 nm, λem = 530 nm) The irreversible inhibition kinetics were analyzed as described previously[35],[36].

[7] = inhibitor titrated up to 100 µM without enzyme or RNA substrate, compared to the SAH-positive control

## Cc1ncc(Cl)cc1NCc1ccc(C(=O)N[C@@H](CC2CCCC2)C(=O)NC2CC2)s1 [Cpd 5]
[1]
  influence on DNMT2-tRNA complex formation: showed the potential to reverse the complex formation

## C#CCN(CC[C@H](N)C(=O)O)C[C@H]1O[C@@H](n2cnc3c(N)ncnc32)[C@H](O)[C@@H]1O [SHO108, (S)-2-amino-4-((((2 R,3S,4 R,5 R)-5-(6-amino-9H-purin-9-yl)-3,4-dihydroxytetrahydrofuran-2-yl)methyl)(prop-2-yn-1-yl)amino)butanoic acid]
[2]; [7]
  binding to split aptamer (MST shift): not binding to the aptamer at relevant concentrations; also recorded: only minimal MST shifts
[3]
  IC50: 7.9 ± 1.8 µM
[4]; orthogonal 3H-incorporation assay, read-out: IC50
  IC50: 9.3 ± 1.8 µM
[5]; MST FTAD tracer displacement, 2 µM DNMT2, 100 nM FTAD, read-out: KD
  Kd: 4.7 µM

## COc1ccn2ncc(-c3nc4[nH]nc(NC(=O)c5ccc(F)cc5)c4cc3F)c2c1 [Cpd 6]
[1]
  influence on DNMT2-tRNA complex formation: showed the potential to reverse the complex formation

## N[C@H](CNc1nc(-c2ccncc2)nc2sc3c(c12)CCCC3)Cc1ccccc1 [Cpd 8]
[1]
  influence on DNMT2-tRNA complex formation: showed the potential to reverse the complex formation

## Cc1cc(Nc2cc(Cl)nc(Oc3ccc([N+](=O)[O-])cc3)n2)n[nH]1 [Cpd 7]
[1]
  influence on DNMT2-tRNA complex formation: do not inﬂuence the complex; also recorded: unable to disrupt the protein-tRNA complex

## COc1cc2nc(N3CCCN(C)CC3)nc(NC3CCN(Cc4ccccc4)CC3)c2cc1OC [Cpd 2]
[1]
  influence on DNMT2-tRNA complex formation: showed the potential to reverse the complex formation

## Cc1ccc(C(=O)COC(=O)c2cccc(NC(=O)c3ccc([N+](=O)[O-])cc3[N+](=O)[O-])c2)cc1 [Cpd 10]
[1]
  influence on DNMT2-tRNA complex formation: do not inﬂuence the complex; also recorded: unable to disrupt the protein-tRNA complex

## Nc1ncnc2c1ncn2[C@@H]1O[C@H](CN(CC[C@H](N)C(=O)O)Cc2ccc(Cl)c(C(F)(F)F)c2)[C@@H](O)[C@H]1O [SH112, (S)-2-amino-4-((((2 R,3S,4 R,5 R)-5-(6-amino-9H-purin-9-yl)-3,4-dihydroxytetrahydrofuran-2-yl)methyl)(4-chloro-3-(trifluoromethyl)benzyl)amino)butanoic acid]
[2]; [7]
  binding to split aptamer (MST shift): not binding to the aptamer at relevant concentrations; also recorded: only minimal MST shifts
[3]
  IC50: 9.3 ± 1.7 µM
[4]
  IC50: 15.6 ± 3.9 µM
[5]
  Kd: 7.8 µM

## c1cc(-c2cnn3cc(-c4ccc(OCCN5CCCCC5)cc4)cnc23)ccn1 [Cpd 1]
[1]
  influence on DNMT2-tRNA complex formation: showed the potential to reverse the complex formation

## CCCCC(CC)CNC(=N)NC(=N)NCCCCCCNC(=N)NC(=N)NCC(CC)CCCC (centres unmarked) [Cpd 3, alexidine]
[3]; enzymatic aptamer assay
  DNMT2 inhibition at concentrations <500 µM: showed inhibition
[6]; DNMT2-FTAD complex alone 96 mP
  fluorescence polarization in the presence of compound: 5 mP
[6]; DNMT2 FP assay, FTAD tracer
  Kd: 364 µM
[6]; FP displacement with SEC separation
  reversibility of binding: fully reversible binder
[6]; FP library screening with FTAD tracer
  displacement of FTAD tracer / binding to SAH-binding site: binding to the SAH-binding site; also recorded: able to compete with the fluorescent SAH-analog
[6]; after SEC removal of compound
  fluorescence polarization restored after size-exclusion chromatography: 92 mP
[6]; second treatment after SEC
  fluorescence polarization after second treatment: 4 mP
[1]
  influence on DNMT2-tRNA complex formation: do not inﬂuence the complex; also recorded: did not influence DNMT2-tRNA complex formation

## CNC(=O)Nc1ccc2c(c1)CCC21OC(=O)N(CC(=O)N(Cc2ccc(F)cc2)C(C)C(F)(F)F)C1=O (centres unmarked) [Cpd 9]
[1]
  influence on DNMT2-tRNA complex formation: showed the potential to reverse the complex formation

## Nc1ncnc2c1ncn2[C@@H]1O[C@H](C[C@@H](N)CC[C@H](N)C(=O)O)[C@@H](O)[C@H]1O [sinefungin]
[2]; SAH analogs at 10 µM, aptaSAH1&2 both 50 nM
  binding to split aptamer (MST shift): slight MST shift

## CC(=O)c1cc([N+](=O)[O-])c(Sc2ccc(F)cc2F)s1 [Cpd 4]
[1]
  influence on DNMT2-tRNA complex formation: do not inﬂuence the complex; also recorded: unable to disrupt the protein-tRNA complex
